Experimental data reported in patent publication US20090018134A1, “Compounds - 945” (AstraZeneca AB, priority 2007, published 2009).

Biological target: T1, mTOR (Homo sapiens, UniProt P42345)
T1 construct: FLAG; made in house
Assay: In Vitro mTOR Kinase Assay (Echo), Test (a)(ii)
Type: biochemical
Conditions: read-out: mTOR Kinase Assay (Echo)
How it was run: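 Enzyme: HEK293-expressed, FLAG-purified mTOR C-terminal fragment (aa 1362-2549). Rxn 2 h RT with biotinylated peptide, stopped with EDTA 50 mM/BSA/Tris pH 7.4. Detection: T389 phospho-antibody AlphaScreen, 680 nm excitation. IC50.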

T1 sequence (P42345 1362-2549): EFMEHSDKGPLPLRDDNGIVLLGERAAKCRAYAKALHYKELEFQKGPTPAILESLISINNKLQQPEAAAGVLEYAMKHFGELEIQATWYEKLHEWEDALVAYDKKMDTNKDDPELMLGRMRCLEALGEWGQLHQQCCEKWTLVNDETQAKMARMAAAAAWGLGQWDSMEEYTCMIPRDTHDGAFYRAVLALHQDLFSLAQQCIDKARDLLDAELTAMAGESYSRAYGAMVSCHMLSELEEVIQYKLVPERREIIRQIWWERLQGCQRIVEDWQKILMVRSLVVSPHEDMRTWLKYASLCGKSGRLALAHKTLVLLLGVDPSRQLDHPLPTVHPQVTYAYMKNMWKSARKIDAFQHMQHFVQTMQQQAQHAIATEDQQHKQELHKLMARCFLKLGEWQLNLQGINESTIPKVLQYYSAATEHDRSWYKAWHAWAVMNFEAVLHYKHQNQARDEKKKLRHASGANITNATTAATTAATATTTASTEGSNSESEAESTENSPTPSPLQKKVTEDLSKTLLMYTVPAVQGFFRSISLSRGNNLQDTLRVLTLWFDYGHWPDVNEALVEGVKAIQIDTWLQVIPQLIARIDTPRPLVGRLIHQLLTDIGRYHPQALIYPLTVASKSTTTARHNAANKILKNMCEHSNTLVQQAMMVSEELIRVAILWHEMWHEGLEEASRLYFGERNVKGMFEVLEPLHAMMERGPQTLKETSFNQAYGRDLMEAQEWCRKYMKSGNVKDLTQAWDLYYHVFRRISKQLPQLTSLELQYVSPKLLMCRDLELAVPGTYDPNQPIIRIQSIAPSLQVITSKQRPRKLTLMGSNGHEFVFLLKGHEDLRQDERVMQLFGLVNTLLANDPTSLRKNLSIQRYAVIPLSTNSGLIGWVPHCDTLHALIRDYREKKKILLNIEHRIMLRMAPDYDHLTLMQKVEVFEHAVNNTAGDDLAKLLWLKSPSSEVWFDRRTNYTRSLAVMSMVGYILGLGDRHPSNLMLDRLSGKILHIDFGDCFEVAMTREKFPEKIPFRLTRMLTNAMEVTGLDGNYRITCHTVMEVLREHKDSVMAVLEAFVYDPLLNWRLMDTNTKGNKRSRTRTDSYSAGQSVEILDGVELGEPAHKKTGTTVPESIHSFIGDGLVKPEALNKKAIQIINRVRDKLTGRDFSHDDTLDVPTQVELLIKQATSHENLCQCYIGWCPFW

Row | Structure (SMILES) | IC50 [nM]
1 | C[C@H]1COCCN1c1cc(C2(S(C)(=O)=O)CC2)nc(-c2ccc(NC(=O)NCC#N)cc2)n1 [Example 2af, 3-(cyanomethyl)-1-[4-[4-[(3S)-3-methylmorpholin-4-yl]-6-(1-methylsulfonylcyclopropyl)pyrimidin-2-yl]phenyl]urea] | 46.2
2 | C[C@H]1COCCN1c1cc(C2(S(=O)(=O)c3ccccc3C(F)(F)F)CC2)nc(-c2ccc(NC(=O)NCCO)cc2)n1 [Example 10g] | 1.56
3 | C[C@H]1COCCN1c1cc(C2(S(=O)(=O)c3ccccc3C(F)(F)F)CC2)nc(-c2ccc(NC(=O)NC3CCC3)cc2)n1 [Example 10a, 3-cyclobutyl-1-[4-[4-[(3S)-3-methylmorpholin-4-yl]-6-[1-[2-(trifluoromethyl)phenyl]sulfonylcyclopropyl]pyrimidin-2-yl]phenyl]urea] | 39.5

Now from value to compound:

Row | IC50 [nM] | Structure (SMILES)
4 | 1.52 | CS(=O)(=O)C1(c2cc(N3CCOCC3)nc(-c3ccc(NC(=O)NC4CCC4)cc3)n2)CC1 [Example 12c, 3-cyclobutyl-1-[4-[4-(1-methylsulfonylcyclopropyl)-6-morpholin-4-ylpyrimidin-2-yl]phenyl]urea]
5 | 2.4 | CNC(=O)Nc1ccc(-c2nc(N3CCOC[C@@H]3C)cc(C3(S(=O)(=O)C4CCCC4)CC3)n2)cc1 [Example 9i]
6 | 1.34 | C[C@H]1COCCN1c1cc(C2(S(=O)(=O)c3ccc(F)cc3)CC2)nc(-c2ccc(NC(=O)NC3CCC3)cc2)n1 [Example 8d, 3-cyclobutyl-1-[4-[4-[1-(4-fluorophenyl)sulfonylcyclopropyl]-6-[(3S)-3-methylmorpholin-4-yl]pyrimidin-2-yl]phenyl]urea]

Same assay, conditions: table of enzyme assay Test (a)(ii); read-out: Test (a)(ii) IC50

Row | Structure (SMILES) | IC50 [nM]
7 | C[C@H]1COCCN1c1cc(C2(S(=O)(=O)CCCO)CC2)nc(-c2ccc(NC(=O)N3CCC(O)C3)cc2)n1 (stereo partly drawn) [Example 36cp, 3-hydroxy-N-[4-[4-[1-(3-hydroxypropylsulfonyl)cyclopropyl]-6-[(3S)-3-methylmorpholin-4-yl]pyrimidin-2-yl]phenyl]pyrrolidine-1-carboxamide] | 1260
8 | C[C@H]1COCCN1c1cc(C2(S(=O)(=O)c3nccs3)CC2)nc(-c2ccc(NC(=O)NCCO)cc2)n1 [Example 66, 3-(2-Hydroxyethyl)-1-[4-[4-[(3S)-3-methylmorpholin-4-yl]-6-[1-(1,3-thiazol-2-ylsulfonyl)cyclopropyl]pyrimidin-2-yl]phenyl]urea] | 3.03
9 | Cc1csc(S(=O)(=O)C2(c3cc(N4CCOC[C@@H]4C)nc(-c4ccc(NC(=O)NCc5ncc[nH]5)cc4)n3)CC2)n1 [Example 36n, 3-(1H-imidazol-2-ylmethyl)-1-[4-[4-[(3S)-3-methylmorpholin-4-yl]-6-[1-[(4-methyl-1,3-thiazol-2-yl)sulfonyl]cyclopropyl]pyrimidin-2-yl]phenyl]urea] | 24.8
10 | C[C@H]1COCCN1c1cc(C2(S(=O)(=O)CCCOC(F)F)CC2)nc(-c2ccc(NC(=O)NC3CC3)cc2)n1 [Example 96e, 3-cyclopropyl-1-[4-[4-[1-[3-(difluoromethoxy)propylsulfonyl]cyclopropyl]-6-[(3S)-3-methylmorpholin-4-yl]pyrimidin-2-yl]phenyl]urea] | 8.62
11 | C[C@H]1COCCN1c1cc(C2(S(=O)(=O)c3cccc(F)c3)CC2)nc(-c2ccc(NC(=O)NC3CC3)cc2)n1 [Example 53a, 3-cyclopropyl-1-[4-[4-[1-(3-fluorophenyl)sulfonylcyclopro-pyl]-6-[(3S)-3-methylmorpholin-4-yl]pyrimidin-2-yl]phenyl]urea] | 2.29
12 | CNC(=S)Nc1ccc(-c2nc(N3CCOC[C@@H]3C)cc(C3(S(=O)(=O)CCCO)CCC3)n2)cc1 [Example 99a, 1-[4-[4-[1-(3-hydroxypropylsulfonyl)cyclobutyl]-6-[(3S)-3-methylmorpholin-4-yl]pyrimidin-2-yl]phenyl]-3-methylthiourea] | 43.8
13 | CNC(=O)Nc1ccc(-c2nc(N3CCOC[C@@H]3C)cc(C3(S(=O)(=O)c4ccccc4C)CC3)n2)cc1 [Example 54, 3-Methyl-1-[4-[4-[(3S)-3-methylmorpholin-4-yl]-6-[1-(2-methylphenyl)sulfonylcyclopropyl]pyrimidin-2-yl]phenyl]urea] | 2.17
14 | Cc1nn(C(F)F)c(C)c1S(=O)(=O)C1(c2cc(N3CCOC[C@@H]3C)nc(-c3ccc(NC(=O)Nc4cnn(C)c4)cc3)n2)CC1 [Example 75f, 1-[4-[4-[1-[1-(difluoromethyl)-3,5-dimethylpyrazol-4-yl]sulfonylcyclopropyl]-6-[(3S)-3-methylmorpholin-4-yl]pyrimidin-2-yl]phenyl]-3-(1-methylpyrazol-4-yl)urea] | 60.8

Second part, the compound after the results:

Row | IC50 [nM] | Structure (SMILES)
15 | 275 | C[C@H]1COCCN1c1cc(C2(S(=O)(=O)c3ccc(F)cc3)CC2)nc(-c2ccc(NC(=O)NCCN(C)C)nc2)n1 [Example 14k, 3-(2-dimethylaminoethyl)-1-[5-[4-[1-(4-fluorophenyl)sulfonylcyclopro-pyl]-6-[(3S)-3-methylmorpholin-4-yl]pyrimidin-2-yl]pyridin-2-yl]urea]
16 | 16.4 | C[C@H]1COCCN1c1cc(C2(S(=O)(=O)c3ccc(F)c(Cl)c3)CC2)nc(-c2ccc(NC(=O)Nc3cnn(C)c3)cc2)n1 [Example 95g, 1-[4-[4-[1-(3-chloro-4-fluorophenyl)sulfonyl-cyclopropyl]-6-[(3S)-3-methylmorpholin-4-yl]pyrimidin-2-yl]phenyl]-3-(1-methylpyrazol-4-yl)urea]
17 | 6.78 | CCNC(=O)Nc1ccc(-c2nc(N3CCOC[C@@H]3C)cc(C3(S(=O)(=O)c4ccc(OC(F)F)cc4)CC3)n2)cc1 [Example 64b, 3-[4-[4-[1-[4-(difluoromethoxy)phenyl]sulfonyl-cyclopropyl]-6-[(3S)-3-methylmorpholin-4-yl]pyrimidin-2-yl]phenyl]-1-ethylurea]
18 | 7.51 | CS(=O)(=O)C1(c2cc(N3CCOCC3)nc(-c3ccc(NC(=O)NC4CCC4)cc3)n2)CC1 [Example 12c, 3-cyclobutyl-1-[4-[4-(1-methylsulfonylcyclopropyl)-6-morpholin-4-ylpyrimidin-2-yl]phenyl]urea]
19 | 101 | Cc1noc(C)c1S(=O)(=O)C1(c2cc(N3CCOC[C@@H]3C)nc(-c3ccc(NC(=O)Nc4cnn(C)c4)cc3)n2)CC1 [Example 59g, 1-[4-[4-[1-[(3,5-dimethyl-1,2-oxazol-4-yl)sulfonyl]cyclopropyl]-6-[(3S)-3-methylmorpholin-4-yl]pyrimidin-2-yl]phenyl]-3-(1-methylpyrazol-4-yl)urea]
20 | 0.395 | C[C@H]1COCCN1c1cc(C2(S(=O)(=O)c3ccc(F)cc3)CC2)nc(-c2ccc(NC(=S)NCCO)cc2)n1 [Example 37u, 1-[4-[4-[1-(4-fluorophenyl)sulfonylcyclopropyl]-6-[(3S)-3-methylmorpholin-4-yl]pyrimidin-2-yl]phenyl]-3-(2-hydroxyethyl)thiourea]
21 | 5.52 | CCNC(=S)Nc1ccc(-c2nc(N3CCOC[C@@H]3C)cc(C3(S(C)(=O)=O)CC3)n2)cc1 [Example 35a, 3-ethyl-1-[4-[4-[(3S)-3-methylmorpholin-4-yl]-6-(1-methylsulfonylcyclopropyl)pyrimidin-2-yl]phenyl]thiourea]
22 | 102 | C[C@H]1COCCN1c1cc(C2(S(=O)(=O)CCCO)CCCC2)nc(-c2ccc(NC(=O)NCCCO)cc2)n1 [Example 43i, 3-(3-hydroxypropyl)-1-[4-[4-[1-(3-hydroxypropyl-sulfonyl)cyclopen-tyl]-6-[(3S)-3-methylmorpholin-4-yl]pyrimidin-2-yl]phenyl]urea]
23 | 1 | CNC(=O)Nc1ccc(-c2nc(N3CCOC[C@@H]3C)cc(C3(S(=O)(=O)c4nc(C)cs4)CC3)n2)cc1 [Example 25i, 3-methyl-1-[4-[4-[(3S)-3-methylmorpholin-4-yl]-6-[1-[(4-methyl-1,3-thiazol-2-yl)sulfonyl]cyclopropyl]pyrimidin-2-yl]phenyl]urea]
